Data on eight molecules can be found in patent US20260092070A1, “INHIBITORS OF CANINE JANUS KINASE AND USES THEREOF” (ANIMOL DISCOVERY, INC., priority 2023, published 2026).

Experiment [1] deals with Human JAK-2 (Homo sapiens, UniProt O60674). The experiment in a line: JAK enzymatic assay (Eurofins KinaseProfiler/IC50Profiler, radiometric), JAK-2. The format is biochemical. The following applies: human JAK-2 enzyme, 9 concentrations; read-out: JAK2 affinity (IC50) category.
Description: (§1) All enzyme assays were conducted according to Eurofins Discovery's KinaseProfiler™ and IC50Profiler™ services.
(SEQ ID NO: 2) peptide substrate, 10 mM magnesium acetate and [gamma-33P]-ATP (specific activity and concentration as required). The reaction was initiated by the addition of the Mg/ATP mix. After incubation for 40 minutes at room temperature, the reaction was stopped by the addition of phosphoric acid to a concentration of 0.5%. An aliquot of the reaction was then spotted onto a filter and washed four times for 4 minutes in 0.425% phosphoric acid and once with methanol prior to drying and scintillation counting.
(§2) Data was then imported into an internal application where each data point was expressed as % inhibition based on uninhibited and no enzyme controls.
Experiment [2] has as its target T1, JAK-1 (Homo sapiens, UniProt P23458). The experiment in a line: JAK enzymatic assay (Eurofins KinaseProfiler/IC50Profiler, radiometric), JAK-1. The following applies: for JAK1/JAK2 selectivity: selectivity IC50 ratio for JAK1 versus JAK2, human enzymes.
Target sequence in this assay (P23458 whole entry): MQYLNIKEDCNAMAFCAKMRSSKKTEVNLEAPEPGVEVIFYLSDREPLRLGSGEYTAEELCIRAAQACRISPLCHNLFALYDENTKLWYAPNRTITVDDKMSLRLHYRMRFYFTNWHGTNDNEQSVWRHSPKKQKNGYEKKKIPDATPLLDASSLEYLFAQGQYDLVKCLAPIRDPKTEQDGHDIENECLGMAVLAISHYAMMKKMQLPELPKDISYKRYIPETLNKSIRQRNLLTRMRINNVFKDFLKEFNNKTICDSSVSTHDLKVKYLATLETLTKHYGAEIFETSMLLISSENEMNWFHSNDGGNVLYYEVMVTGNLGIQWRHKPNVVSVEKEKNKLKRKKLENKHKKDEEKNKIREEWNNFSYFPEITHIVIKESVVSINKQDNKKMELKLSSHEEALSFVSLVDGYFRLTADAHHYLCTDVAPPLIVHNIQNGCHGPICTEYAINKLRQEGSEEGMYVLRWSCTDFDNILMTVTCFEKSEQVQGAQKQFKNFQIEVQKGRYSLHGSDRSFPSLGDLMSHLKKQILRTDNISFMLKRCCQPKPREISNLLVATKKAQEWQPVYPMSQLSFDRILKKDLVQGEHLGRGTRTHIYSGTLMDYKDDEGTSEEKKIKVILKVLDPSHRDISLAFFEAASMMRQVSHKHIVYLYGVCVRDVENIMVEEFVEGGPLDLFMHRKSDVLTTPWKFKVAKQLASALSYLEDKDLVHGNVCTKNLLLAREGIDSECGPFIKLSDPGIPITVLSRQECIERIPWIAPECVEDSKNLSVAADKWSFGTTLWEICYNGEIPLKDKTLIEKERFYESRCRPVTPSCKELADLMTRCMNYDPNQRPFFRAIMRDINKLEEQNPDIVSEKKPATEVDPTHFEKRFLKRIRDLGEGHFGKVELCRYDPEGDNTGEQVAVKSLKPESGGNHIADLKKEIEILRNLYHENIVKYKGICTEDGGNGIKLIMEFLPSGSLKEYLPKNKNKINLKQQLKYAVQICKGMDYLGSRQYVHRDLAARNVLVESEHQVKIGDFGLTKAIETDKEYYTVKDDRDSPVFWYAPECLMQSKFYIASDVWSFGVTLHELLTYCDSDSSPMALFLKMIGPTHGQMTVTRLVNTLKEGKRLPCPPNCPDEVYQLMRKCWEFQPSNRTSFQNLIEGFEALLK
Description: as §1
(SEQ ID NO.: 1) peptide substrate, 10 mM magnesium acetate and [gamma-33P]-ATP (specific activity and concentration as required). The reaction was initiated by the addition of the Mg/ATP mix. After incubation for 40 minutes at room temperature, the reaction was stopped by the addition of phosphoric acid to a concentration of 0.5%. An aliquot of the reaction was then spotted onto a filter and washed four times for 4 minutes in 0.425% phosphoric acid and once with methanol prior to drying and scintillation counting. A known inhibitor, Staurosporine, was used as a positive control for the assay.
Data was then imported into an internal application where each data point was expressed as % inhibition based on uninhibited and no enzyme controls. […] Inhibition values for the JAK enzymes (IC50 values) for each compound were stratified into four groups.
Experiment [3] deals with T2, Human TYK-2 (Homo sapiens, UniProt P29597).
T2 construct: purchased Eurofins Discovery (KinaseProfiler / IC50Profiler service)
The experiment in a line: JAK enzymatic assay (Eurofins KinaseProfiler/IC50Profiler, radiometric), TYK-2. The format is biochemical. The following applies: human TYK-2 enzyme, 9 concentrations; read-out: TYK2 affinity (IC50) category. Here is the method: Human TYK-2 (Uniprot ID: P29597) was incubated with 8 mM MOPS pH 7.0, 0.2 mM EDTA, 250 μM […]

Experiment [4] addresses T3, Human JAK-3 (Homo sapiens, UniProt P52333).
T3 construct: purchased Eurofins Discovery (KinaseProfiler / IC50Profiler service)
T3 sequence (P52333 1-1124): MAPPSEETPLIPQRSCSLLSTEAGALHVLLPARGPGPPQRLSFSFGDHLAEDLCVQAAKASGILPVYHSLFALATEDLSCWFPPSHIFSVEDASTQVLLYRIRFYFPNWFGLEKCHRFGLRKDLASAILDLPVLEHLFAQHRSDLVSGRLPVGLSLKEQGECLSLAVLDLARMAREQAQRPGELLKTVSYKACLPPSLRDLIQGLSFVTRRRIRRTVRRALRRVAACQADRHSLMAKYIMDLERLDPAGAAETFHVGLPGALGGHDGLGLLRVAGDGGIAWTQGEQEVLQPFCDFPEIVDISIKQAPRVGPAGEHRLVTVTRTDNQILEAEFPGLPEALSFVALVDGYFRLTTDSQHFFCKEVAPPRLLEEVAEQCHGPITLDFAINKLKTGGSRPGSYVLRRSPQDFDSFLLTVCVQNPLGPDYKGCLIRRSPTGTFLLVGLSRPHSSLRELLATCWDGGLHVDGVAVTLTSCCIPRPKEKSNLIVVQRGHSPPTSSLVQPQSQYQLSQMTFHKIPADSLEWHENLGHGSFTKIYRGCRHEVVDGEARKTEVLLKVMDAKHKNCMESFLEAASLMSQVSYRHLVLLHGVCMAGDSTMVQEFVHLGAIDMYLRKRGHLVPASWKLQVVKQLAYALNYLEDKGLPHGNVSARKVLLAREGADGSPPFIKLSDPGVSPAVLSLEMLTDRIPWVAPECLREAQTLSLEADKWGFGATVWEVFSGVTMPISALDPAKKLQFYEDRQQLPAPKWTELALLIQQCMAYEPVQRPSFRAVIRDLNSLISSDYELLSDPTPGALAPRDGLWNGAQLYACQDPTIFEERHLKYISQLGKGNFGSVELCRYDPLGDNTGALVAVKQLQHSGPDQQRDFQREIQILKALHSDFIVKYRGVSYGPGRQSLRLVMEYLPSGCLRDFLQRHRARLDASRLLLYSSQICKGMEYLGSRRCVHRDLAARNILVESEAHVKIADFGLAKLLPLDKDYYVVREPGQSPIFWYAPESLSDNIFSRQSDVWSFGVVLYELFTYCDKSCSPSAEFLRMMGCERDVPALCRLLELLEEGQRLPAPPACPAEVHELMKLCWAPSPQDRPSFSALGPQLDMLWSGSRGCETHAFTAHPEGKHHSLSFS
The experiment in a line: JAK enzymatic assay (Eurofins KinaseProfiler/IC50Profiler, radiometric), JAK-3. The format is biochemical. The following applies: human JAK-3 enzyme, 9 concentrations; read-out: JAK3 affinity (IC50) category.
Description: as §1
(SEQ ID NO: 3) peptide substrate, 10 mM magnesium acetate and [gamma-33P]-ATP (specific activity and concentration as required). The reaction was initiated by the addition of the Mg/ATP mix. After incubation for 40 minutes at room temperature, the reaction was stopped by the addition of phosphoric acid to a concentration of 0.5%. An aliquot of the reaction was then spotted onto a filter and washed four times for 4 minutes in 0.425% phosphoric acid and once with methanol prior to drying and scintillation counting.
as §2

Experiment [5] has as its system cJAK-1. The experiment in a line: Selectivity of oclacitinib among canine JAK subtypes. The format is biochemical.
For experiment [6], the target named is T1, JAK-1. The following applies: Gonzales et al., 2014; cited from earlier work.
Target sequence in this assay (P23458 whole entry, species assumed): as the sequence (P23458 whole entry) above
For experiment [7], the system named is JAK1-dependent cytokines (IL-2, IL-4, IL-6, IL-13, IL-31). The following applies: IL-2, IL-4, IL-6, IL-13 and IL-31; Gonzales et al., 2014; read-out: IC50 for inhibiting the function of JAK1-dependent cytokines; cited from earlier work.

Read-outs that look alike come from different tables or passages of the source. Bounds are passed on as bounds.

T2 sequence (P29597 whole entry): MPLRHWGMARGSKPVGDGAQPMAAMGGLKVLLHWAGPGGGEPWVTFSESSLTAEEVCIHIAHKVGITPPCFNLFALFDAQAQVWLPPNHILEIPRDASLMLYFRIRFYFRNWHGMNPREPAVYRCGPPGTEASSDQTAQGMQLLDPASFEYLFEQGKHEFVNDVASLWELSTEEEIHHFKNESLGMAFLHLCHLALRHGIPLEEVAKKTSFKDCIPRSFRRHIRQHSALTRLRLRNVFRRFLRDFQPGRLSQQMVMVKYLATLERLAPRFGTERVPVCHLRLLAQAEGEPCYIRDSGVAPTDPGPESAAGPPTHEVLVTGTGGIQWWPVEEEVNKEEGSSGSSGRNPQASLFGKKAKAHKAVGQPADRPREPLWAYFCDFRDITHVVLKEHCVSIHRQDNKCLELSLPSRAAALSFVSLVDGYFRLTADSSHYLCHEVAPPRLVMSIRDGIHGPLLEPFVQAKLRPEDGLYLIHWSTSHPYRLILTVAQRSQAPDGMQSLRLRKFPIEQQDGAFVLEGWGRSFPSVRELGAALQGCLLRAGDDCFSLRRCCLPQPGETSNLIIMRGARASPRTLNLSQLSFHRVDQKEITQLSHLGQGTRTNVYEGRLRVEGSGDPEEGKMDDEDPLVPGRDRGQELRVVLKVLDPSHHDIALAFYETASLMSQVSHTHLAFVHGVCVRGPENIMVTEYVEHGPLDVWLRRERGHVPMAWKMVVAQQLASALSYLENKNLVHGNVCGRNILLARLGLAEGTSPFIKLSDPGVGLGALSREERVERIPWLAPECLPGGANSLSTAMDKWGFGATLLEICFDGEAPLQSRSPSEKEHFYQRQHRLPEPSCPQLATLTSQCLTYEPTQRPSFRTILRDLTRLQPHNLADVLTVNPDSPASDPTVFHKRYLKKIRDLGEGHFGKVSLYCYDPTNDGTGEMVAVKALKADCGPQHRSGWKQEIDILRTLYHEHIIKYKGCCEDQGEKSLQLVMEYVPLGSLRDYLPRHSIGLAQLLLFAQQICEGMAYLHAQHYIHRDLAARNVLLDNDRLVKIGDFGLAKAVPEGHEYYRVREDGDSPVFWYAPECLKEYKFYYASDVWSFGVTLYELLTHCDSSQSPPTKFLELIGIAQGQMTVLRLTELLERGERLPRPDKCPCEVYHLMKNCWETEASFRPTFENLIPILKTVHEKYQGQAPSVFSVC
Chain of Human JAK-2 (O60674 whole entry): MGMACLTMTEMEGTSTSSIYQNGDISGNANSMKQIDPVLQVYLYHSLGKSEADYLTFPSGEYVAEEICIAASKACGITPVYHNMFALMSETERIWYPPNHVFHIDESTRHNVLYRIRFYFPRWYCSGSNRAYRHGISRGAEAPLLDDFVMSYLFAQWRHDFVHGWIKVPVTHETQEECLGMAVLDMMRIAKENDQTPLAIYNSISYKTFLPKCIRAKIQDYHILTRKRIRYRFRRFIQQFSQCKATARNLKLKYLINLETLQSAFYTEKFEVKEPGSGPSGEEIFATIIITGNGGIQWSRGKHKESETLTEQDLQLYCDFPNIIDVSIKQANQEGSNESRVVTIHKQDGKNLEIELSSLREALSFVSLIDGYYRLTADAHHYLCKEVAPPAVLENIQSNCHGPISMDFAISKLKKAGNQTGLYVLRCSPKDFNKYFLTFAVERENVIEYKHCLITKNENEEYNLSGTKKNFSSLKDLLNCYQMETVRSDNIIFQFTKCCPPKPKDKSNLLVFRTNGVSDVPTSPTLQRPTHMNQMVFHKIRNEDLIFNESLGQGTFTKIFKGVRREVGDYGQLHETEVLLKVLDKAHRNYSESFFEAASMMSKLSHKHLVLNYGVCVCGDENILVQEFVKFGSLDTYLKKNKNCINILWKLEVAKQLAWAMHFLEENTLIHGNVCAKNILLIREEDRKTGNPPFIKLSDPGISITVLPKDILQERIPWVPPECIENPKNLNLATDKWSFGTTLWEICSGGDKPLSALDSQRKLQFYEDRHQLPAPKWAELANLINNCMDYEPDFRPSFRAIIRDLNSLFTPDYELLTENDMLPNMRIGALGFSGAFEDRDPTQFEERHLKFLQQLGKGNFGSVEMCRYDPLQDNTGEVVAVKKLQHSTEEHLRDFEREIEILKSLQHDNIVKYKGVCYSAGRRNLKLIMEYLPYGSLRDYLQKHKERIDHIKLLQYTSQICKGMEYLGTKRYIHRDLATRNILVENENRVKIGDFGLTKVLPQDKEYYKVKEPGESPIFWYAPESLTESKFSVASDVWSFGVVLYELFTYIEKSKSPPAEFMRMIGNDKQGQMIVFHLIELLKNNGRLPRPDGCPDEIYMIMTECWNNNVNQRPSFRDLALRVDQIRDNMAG

As to `CCCCNS(=O)(=O)c1ccc(NC(=O)CN2CCN(c3ncnc4[nH]ccc34)CC2)cc1` [Compound 11, 2-(4-(7H-pyrrolo[2,3-d]pyrimidin-4-yl)piperazin-1-yl)-N-(4-(N-butylsulfamoyl)phenyl)acetamide], the IC50 in experiment [1] was greater than 1 µM; in experiment [2] it was less than 0.25 µM; in experiment [3], greater than 1 µM; in experiment [4], 0.5 to 1 µM. Also, the JAK1/JAK2 selectivity in experiment [2] was 9.
For `CCCNS(=O)(=O)c1ccc(NC(=O)CN2CCN(c3ncnc4[nH]ccc34)CC2)cc1` [Compound 12, 2-(4-(7H-pyrrolo[2,3-d]pyrimidin-4-yl)piperazin-1-yl)-N-(4-(N-propylsulfamoyl)phenyl)acetamide], the 50% inhibitory concentration (IC50) in experiment [1] is 0.5 to 1 µM; in experiment [2], less than 0.25 µM; in experiment [3] it was greater than 1 µM; in experiment [4] it was 0.5 to 1 µM. For the same molecule, in experiment [2], the JAK1/JAK2 selectivity amounted to 4.
Turning to `CCNS(=O)(=O)c1ccc(NC(=O)CN2CCN(c3ncnc4[nH]ccc34)CC2)cc1` [Compound 13, 2-(4-(7H-pyrrolo[2,3-d]pyrimidin-4-yl)piperazin-1-yl)-N-(4-(N-ethylsulfamoyl)phenyl)acetamide], the half-inhibitory concentration (IC50) in experiment [1] is greater than 1 µM; in experiment [2], less than 0.25 µM; in experiment [3], greater than 1 µM; in experiment [4], greater than 1 µM. The JAK1/JAK2 selectivity in experiment [2] came to 13.
With `CNS(=O)(=O)c1ccc(N(C)C(=O)CN2CCN(c3ncnc4[nH]ccc34)CC2)cc1` [Compound 14, 2-(4-(7H-pyrrolo[2,3-d]pyrimidin-4-yl)piperazin-1-yl)-N-methyl-N-(4-(N-methylsulfamoyl)phenyl)acetamide], the half-maximal inhibitory concentration (IC50) in experiment [1] was greater than 1 µM; in experiment [2], 0.25 to 0.5 µM; in experiment [3] it was greater than 1 µM; in experiment [4] it was greater than 1 µM. In addition, in experiment [2], the JAK1/JAK2 selectivity is given as 17.
`CC(C)NS(=O)(=O)c1ccc(NC(=O)C(C)N2CCN(c3ncnc4[nH]ccc34)CC2)cc1` (centres unmarked) [Compound 17, 2-(4-(7H-pyrrolo[2,3-d]pyrimidin-4-yl)piperazin-1-yl)-N-(4-(N-isopropylsulfamoyl)phenyl)propenamide]: the IC50 is greater than 1 µM in experiment [1], 0.25 to 0.5 µM in experiment [2], greater than 1 µM in experiment [3] and greater than 1 µM in experiment [4]. Also, the JAK1/JAK2 selectivity in experiment [2] was determined as 7.
Consider `CC(C)NS(=O)(=O)c1ccc(NC(=O)[C@@H](C)N2CCN(c3ncnc4[nH]ccc34)CC2)cc1` [Compound 18, (R)-2-(4-(7H-pyrrolo[2,3-d]pyrimidin-4-yl)piperazin-1-yl)-N-(4-(N-isopropylsulfamoyl)phenyl)propanamide], for which the IC50 in experiment [1] is less than 0.25 µM; in experiment [2], 0.25 to 0.5 µM; in experiment [3], greater than 1 µM; in experiment [4], 0.5 to 1 µM. For the same molecule, in experiment [2], the JAK1/JAK2 selectivity is reported as 4.
As to `CC(C(=O)Nc1ccc(S(=O)(=O)N2CCCCC2)cc1)N1CCN(c2ncnc3[nH]ccc23)CC1` (centres unmarked) [Compound 20, 2-(4-(7H-pyrrolo[2,3-d]pyrimidin-4-yl)piperazin-1-yl)-N-(4-(piperidin-1-ylsulfonyl)phenyl)propenamide], the IC50 in experiment [1] was greater than 1 µM; in experiment [2], 0.5 to 1 µM; in experiment [3], 0.5 to 1 µM; in experiment [4] it was greater than 1 µM. Also, the JAK1/JAK2 selectivity in experiment [2] was 2.
In the case of `CNS(=O)(=O)C[C@H]1CC[C@H](N(C)c2ncnc3[nH]ccc23)CC1.O=C(O)/C=C\C(=O)O` [Oclacitinib, N-methyl[trans-4-(methyl-7H-pyrrolo[2,3-d]pyrimidin-4-ylamino)cyclohexyl]methanesulfonamide (2Z)-2-butenedioate], the “selectivity toward cJAK-2, cJAK-3, and cJAK-4 relative to cJAK-1” value in experiment [5] was “relatively low”. The concentration for half-maximal inhibition (IC50) in experiment [6] is 0.01 µM; in experiment [7], 0.036 to 0.249 µM.

As a reminder, the IC50 is the point on the concentration scale where inhibition reaches its midpoint.
